Source: patent US10959432B2, “Microbiocidal oxadiazole derivatives” (Syngenta Participations AG, priority 2016, dated 2021)

Columns and labels:
Phakopsora pachyrhizi = assay: Fungicidal activity against Phakopsora pachyrhizi / soybean / leaf disc preventative (Asian soybean rust); format: in vivo; settings: foliar, 200 ppm in the applied formulation, soybean leaf disks, preventative (inoculated one day after application), assessed 12 to 14 days after application, read-out: disease control compared to untreated control leaf disks
In short: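 Soybean leaf discs on water agar sprayed with formulated compound diluted in water; spore suspension sprayed on lower leaf surface one day later. Incubated 24-36 h dark at 20° C, 75% rh, then 20° C, 12 h light/day, 75% rh. Percent disease control versus untreated scored 12 to 14 days after application.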

Uromyces viciae-fabae = assay: Fungicidal activity against Uromyces viciae-fabae / field bean / leaf disc preventative (faba-bean rust); format: in vivo; settings: foliar, 288 h, 100 ppm in the applied formulation, field bean leaf discs, preventative (inoculated two hours after application), assessed 12 days after application, read-out: disease control compared to untreated control leaf discs
In short: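 Field bean leaf discs on water agar treated with 10 μl compound in acetone plus spreader, then spray-inoculated on the lower surface with Uromyces viciae-fabae spores 2 h later. Incubation at 22 °C, 18 h day, 70% RH; percent disease control versus untreated scored 12 days after application, compounds at 100 ppm.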

[1] = test system: Puccinia recondita f. sp. tritici; assay: Fungicidal activity against Puccinia recondita f. sp. tritici / wheat / leaf disc preventative (brown rust); format: in vivo; settings: foliar, 200 ppm in the applied formulation, wheat leaf segments cv. Kanzler, preventative (inoculated 1 day after application), assessed 7 to 9 days after application, read-out: disease control compared to untreated control leaf disks
In short: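 Wheat cv. Kanzler leaf segments on agar sprayed with formulated compound diluted in water, inoculated with P. recondita spores 1 day later. Incubated at 19C, 75% rh, 12 h light/12 h dark; scored 7 to 9 days after application as percent disease control versus untreated segments. Test rate 200 ppm.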

[2] = test system: Puccinia recondita f. sp. tritici; assay: Fungicidal activity against Puccinia recondita f. sp. tritici / wheat / leaf disc curative (brown rust); format: in vivo; settings: foliar, 200 ppm in the applied formulation, wheat leaf segments cv. Kanzler, curative (applied 1 day after inoculation), assessed 6 to 8 days after application, read-out: disease control compared to untreated control leaf disks
In short: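 Wheat cv. Kanzler leaf segments on agar, spore-inoculated, held dark at 19° C./75% RH; formulated compound in water sprayed 1 day post-inoculation (curative). Incubated 19° C., 75% RH, 12 h light/12 h dark; percent disease control vs untreated scored 6 to 8 days after application.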

[3] = test system: Glomerella laqenarium (Colletotrichum lagenarium); assay: Fungicidal activity against Glomerella lagenarium (Colletotrichum lagenarium) liquid culture / cucumber / preventative (anthracnose); format: cell-based; settings: Colletotrichum orbiculare; 20 ppm in the applied formulation; liquid culture in PDB, 24° C., 3 to 4 days after application; read-out: disease control compared to untreated control (inhibition of growth measured photometrically)
In short: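 Cryostored conidia mixed into potato dextrose broth and added to test compound (from DMSO solution) in microtiter plates. Incubated at 24 °C; growth inhibition read photometrically 3 to 4 days after application, as percent activity versus untreated check.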

| SMILES | pest or weed control at 200 ppm (Phakopsora pachyrhizi) [%] | pest or weed control at 100 ppm (Uromyces viciae-fabae) [%] | pest or weed control at 200 ppm [1] [%] | pest or weed control at 200 ppm [2] [%] | inhibition at 20 ppm [3] [%] | melting point [°C] |
| --- | --- | --- | --- | --- | --- | --- |
| C=CCNC(=O)c1ccc(-c2noc(C(F)(F)F)n2)cc1F [Compound 3b.3, N-allyl-2-fluoro-4-[5-(trifluoromethyl)-1,2,4-oxadiazol-3-yl]benzamide] | ≥ 80 | ≥ 80 | ≥ 80 | ≥ 80 | ≥ 80 | 108 to 109.3 |
| O=C(NCc1cccs1)c1ccc(-c2noc(C(F)(F)F)n2)cc1F [Compound 5b.1, 2-fluoro-N-(2-thienylmethyl)-4-[5-(trifluoromethyl)-1,2,4-oxadiazol-3-yl]benzamide] | ≥ 80 | ≥ 80 | ≥ 80 | ≥ 80 | – | 142.7 to 143 |
| O=C(NCC1CCCC1)c1ccc(-c2noc(C(F)(F)F)n2)cc1F [Compound 2b.8, N (cyclopentylmethyl)-2-fluoro-4-[5-(trifluoromethyl)-1,2,4-oxadiazol-3-yl]benzamide] | ≥ 80 | ≥ 80 | – | – | ≥ 80 | 122 to 125.6 |
| C#CC(C)(C)NC(=O)c1ccc(-c2noc(C(F)(F)F)n2)cc1F [Compound 3b.8, N-(1,1-dimethylprop-2-ynyl)-2-fluoro-4-[5-(trifluoromethyl)-1,2,4-oxadiazol-3-yl]benzamide] | ≥ 80 | ≥ 80 | ≥ 80 | ≥ 80 | ≥ 80 | 69.2 to 69.7 |
| O=C(NCc1ccccc1)c1ccc(-c2noc(C(F)(F)F)n2)cc1F [Compound 4b.6, N-benzyl-2-fluoro-4-[5-(trifluoromethyl)-1,2,4-oxadiazol-3-yl]benzamide] | ≥ 80 | ≥ 80 | ≥ 80 | ≥ 80 | – | 146 to 147.7 |
| O=C(NCc1cnc(Cl)s1)c1ccc(-c2noc(C(F)(F)F)n2)cc1F [Compound 5b.14, N-[(2-chlorothiazol-5-yl)methyl]-2-fluoro-4-[5-(trifluoromethyl)-1,2,4-oxadiazol-3-yl]benzamide] | ≥ 80 | ≥ 80 | ≥ 80 | ≥ 80 | ≥ 80 | 127.8 to 130.8 |
| O=C(NCc1ccc(F)cc1)c1ccc(-c2noc(C(F)(F)F)n2)cc1F [Compound 4b.2] | ≥ 80 | ≥ 80 | ≥ 80 | – | ≥ 80 | 145 to 147 |
| C#CCNC(=O)c1ccc(-c2noc(C(F)(F)F)n2)cc1F [Compound 3b.4, 2-fluoro-N-prop-2-ynyl-4-[5-(trifluoromethyl)-1,2,4-oxadiazol-3-yl]benzamide] | ≥ 80 | ≥ 80 | ≥ 80 | ≥ 80 | ≥ 80 | 128.2 to 129.4 |
| O=C(NCCc1ccccc1)c1ccc(-c2noc(C(F)(F)F)n2)cc1F [Compound 4b.8, 2-fluoro-N-(2-phenylethyl)-4-[5-(trifluoromethyl)-1,2,4-oxadiazol-3-yl]benzamide] | ≥ 80 | ≥ 80 | ≥ 80 | – | ≥ 80 | 130 to 131.9 |
| CCCNC(=O)c1ccc(-c2noc(C(F)(F)F)n2)cc1F [Compound 3b.1, 2-fluoro-N-propyl-4-[5-(trifluoromethyl)-1,2,4-oxadiazol-3-yl]benzamide] | ≥ 80 | ≥ 80 | ≥ 80 | ≥ 80 | ≥ 80 | 118.5 to 119.9 |
| Cc1ccc(CNC(=O)c2ccc(-c3noc(C(F)(F)F)n3)cc2)cc1 [Compound 4a.1, N-(p-tolylmethyl)-4-[5-(trifluoromethyl)-1,2,4-oxadiazol-3-yl]benzamide] | ≥ 80 | ≥ 80 | – | – | ≥ 80 | 198 to 203 |
| O=C(NCc1ccccc1F)c1ccc(-c2noc(C(F)(F)F)n2)cc1F [Compound 4b.1, 2-fluoro-N-[(2-fluorophenyl)methyl]-4-[5-(trifluoromethyl)-1,2,4-oxadiazol-3-yl]benzamide] | ≥ 80 | ≥ 80 | ≥ 80 | – | ≥ 80 | 132 to 136 |
| O=C(NCC1CCCO1)c1ccc(-c2noc(C(F)(F)F)n2)cc1F (stereo not drawn) [Compound 1b.17, 2-fluoro-N-(tetrahydrofuran-2-ylmethyl)-4-[5-(trifluoromethyl)-1,2,4-oxadiazol-3-yl]benzamide] | ≥ 80 | ≥ 80 | ≥ 80 | ≥ 80 | ≥ 80 | 95.6 to 96.7 |
| CC(C)(CO)NC(=O)c1ccc(-c2noc(C(F)(F)F)n2)cc1 [Compound 3a.17, N-(2-hydroxy-1,1-dimethyl-ethyl)-4-[5-(trifluoromethyl)-1,2,4-oxadiazol-3-yl]benzamide] | – | ≥ 80 | ≥ 80 | ≥ 80 | ≥ 80 | 130 to 135 |
| Cc1cccc(CNC(=O)c2ccc(-c3noc(C(F)(F)F)n3)cc2)c1 [Compound 4a.2, N-(m-tolylmethyl)-4-[5-(trifluoromethyl)-1,2,4-oxadiazol-3-yl]benzamide] | ≥ 80 | ≥ 80 | ≥ 80 | – | ≥ 80 | 135 to 141 |
| CC#CC(C)(C)NC(=O)c1ccc(-c2noc(C(F)(F)F)n2)cc1 [Compound 3a.5, N-(1,1-dimethylbut-2-ynyl)-4-[5-(trifluoromethyl)-1,2,4-oxadiazol-3-yl]benzamide] | ≥ 80 | ≥ 80 | ≥ 80 | ≥ 80 | – | 104 to 105.1 |
| COc1ccccc1CNC(=O)c1ccc(-c2noc(C(F)(F)F)n2)cc1F [Compound 4b.5, 2-fluoro-N-[(2-methoxyphenyl)methyl]-4-[5-(trifluoromethyl)-1,2,4-oxadiazol-3-yl]benzamide] | ≥ 80 | ≥ 80 | ≥ 80 | – | ≥ 80 | 113.3 to 114.8 |
| O=C(NCCc1ccc(F)cc1)c1ccc(-c2noc(C(F)(F)F)n2)cc1F [Compound 4b.7, 2-fluoro-N-[2-(4-fluorophenyl)ethyl]-4-[5-(trifluoromethyl)-1,2,4-oxadiazol-3-yl]benzamide] | ≥ 80 | ≥ 80 | ≥ 80 | – | ≥ 80 | 128.2 to 129.4 |
| CC(C)CC(C)NC(=O)c1ccc(-c2noc(C(F)(F)F)n2)cc1F (stereo not drawn) [Compound 3b.7, N-(1,3-dimethylbutyl)-2-fluoro-4-[5-(trifluoromethyl)-1,2,4-oxadiazol-3-yl]benzamide] | ≥ 80 | ≥ 80 | ≥ 80 | – | ≥ 80 | 108.5 to 110.4 |
| COc1ccc(CNC(=O)c2ccc(-c3noc(C(F)(F)F)n3)cc2)cc1 [Compound 4a.3, N-[(4-methoxyphenyl)methyl]-4-[5-(trifluoromethyl)-1,2,4-oxadiazol-3-yl]benzamide] | ≥ 80 | ≥ 80 | ≥ 80 | – | ≥ 80 | 154 to 159 |
| CC(NC(=O)c1ccc(-c2noc(C(F)(F)F)n2)cc1F)c1ccccc1 (stereo not drawn) [Compound 4b.3, 2-fluoro-N-(1-phenylethyl)-4-[5-(trifluoromethyl)-1,2,4-oxadiazol-3-yl]benzamide] | ≥ 80 | ≥ 80 | ≥ 80 | – | – | 121.1 to 123.7 |
